Assay results as given in patent publication US20260285874A1, “SALT FORM AND CRYSTAL FORM OF THIENOPYRIMIDINE COMPOUND, AND PREPARATION METHOD THEREFOR AND USE THEREOF” (SHANDONG LUYE PHARMACEUTICAL CO., LTD., priority 2023, published 2026).

Key:
[1] = biological target: T1, human GnRHR (Homo sapiens, UniProt P30968); experiment: In vitro antagonistic activity screening (FLIPR calcium fluorescence, leuprolide acetate stimulation); assay type: cell-based
T1 sequence (P30968 1-328): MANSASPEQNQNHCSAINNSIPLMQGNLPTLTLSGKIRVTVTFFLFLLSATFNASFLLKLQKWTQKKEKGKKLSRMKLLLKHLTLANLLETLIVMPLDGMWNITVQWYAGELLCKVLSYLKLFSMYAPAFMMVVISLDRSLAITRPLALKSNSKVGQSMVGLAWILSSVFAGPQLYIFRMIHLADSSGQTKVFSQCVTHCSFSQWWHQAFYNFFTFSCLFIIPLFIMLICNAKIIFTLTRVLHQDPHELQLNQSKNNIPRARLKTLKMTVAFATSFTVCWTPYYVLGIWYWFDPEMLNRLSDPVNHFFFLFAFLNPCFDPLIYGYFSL
Description: • Cell: HEK293 cells stably expressing human GnRHR (WuXi AppTec (Shanghai) Co., Ltd.) • Equipment: 384-well plate, Greiner; Vi-cell XR Cell Viability Analyzer, Beckman Coulter; incubator, Thermo. • Method: HEK293 cells stably expressing human GnRHR were seeded into a 384-well plate at a density of 20,000 cells/well. Fluo-4 Direct™ No-wash Loading Buffer (Invitrogen) was added to each well the next day, and then the plate was put back into an incubator, incubated at 37° C. for 50 min, and then incubated at room temperature for 10 min. […] Fluorescence was measured using a FLIPR Tetra high-throughput real-time fluorescence assay and analysis system. Then 10 μL of Leuprolide acetate was added, and fluorescence was measured. The IC50 and IC90 of the compound were calculated using Prism.

[2] = biological target: T2, human hERG potassium channel (Homo sapiens, UniProt Q12809); experiment: hERG test (QPatch automated patch clamp, CHO cells); assay type: cell-based
T2 construct: host or cells: CHO
T2 sequence (Q12809 whole entry): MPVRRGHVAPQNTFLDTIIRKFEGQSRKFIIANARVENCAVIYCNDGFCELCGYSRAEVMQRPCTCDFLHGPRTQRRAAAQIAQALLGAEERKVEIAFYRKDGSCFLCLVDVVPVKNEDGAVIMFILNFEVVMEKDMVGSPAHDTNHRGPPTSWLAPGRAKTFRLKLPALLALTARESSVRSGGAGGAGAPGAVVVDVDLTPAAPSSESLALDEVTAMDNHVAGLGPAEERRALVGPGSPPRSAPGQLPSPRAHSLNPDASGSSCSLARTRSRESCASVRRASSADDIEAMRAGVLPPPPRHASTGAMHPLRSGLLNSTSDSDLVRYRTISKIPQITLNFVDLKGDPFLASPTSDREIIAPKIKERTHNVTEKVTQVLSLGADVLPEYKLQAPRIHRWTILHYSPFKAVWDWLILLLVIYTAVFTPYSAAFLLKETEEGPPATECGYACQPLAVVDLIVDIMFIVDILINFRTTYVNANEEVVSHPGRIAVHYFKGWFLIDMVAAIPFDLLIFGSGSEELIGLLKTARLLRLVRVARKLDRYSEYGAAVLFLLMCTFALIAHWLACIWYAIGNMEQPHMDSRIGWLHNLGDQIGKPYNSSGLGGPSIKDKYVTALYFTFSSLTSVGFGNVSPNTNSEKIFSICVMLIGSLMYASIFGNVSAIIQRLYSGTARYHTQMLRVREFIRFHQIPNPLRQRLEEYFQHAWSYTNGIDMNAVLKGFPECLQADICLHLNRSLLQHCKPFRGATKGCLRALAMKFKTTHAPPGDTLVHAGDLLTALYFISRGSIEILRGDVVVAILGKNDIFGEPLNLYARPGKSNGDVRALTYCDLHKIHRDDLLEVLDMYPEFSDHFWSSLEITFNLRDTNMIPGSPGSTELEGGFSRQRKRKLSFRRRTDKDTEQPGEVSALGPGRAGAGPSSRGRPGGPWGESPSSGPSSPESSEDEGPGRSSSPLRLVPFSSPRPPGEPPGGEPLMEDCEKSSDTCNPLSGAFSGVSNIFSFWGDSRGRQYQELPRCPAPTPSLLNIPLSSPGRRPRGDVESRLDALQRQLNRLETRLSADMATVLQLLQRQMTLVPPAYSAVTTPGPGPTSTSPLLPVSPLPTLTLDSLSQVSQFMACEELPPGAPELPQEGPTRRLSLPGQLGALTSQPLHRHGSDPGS
Description: • Cell: CHO cells stably expressing a human hERG potassium channel (WuXi AppTec (Shanghai) Co., Ltd.) • Reagents: physiological solution (PH=7.4): 140 mM NaCl, 4 mM KCl, 2 mM CaCl2), 1 mM MgCl2, 5 mM glucose, 10 mM HEPES, osmolarity: about 298 mOsm; external solution (PH=7.4): 80 mM NaCl, 4 mM KCl, 2 mM CaCl2, 1 mM MgCl2, 5 mM glucose, 60 mM NMDG, 10 mM HEPES, osmolarity: about 289 mOsm; and internal solution (PH=7.4): 10 mM NaCl, 10 mM KCl, 110 mM KF, 10 mM HEPES, EGTA: […], osmolarity: about 280 mOsm. • Equipment: QPatch high-throughput automated patch clamp system, Sophion. • Method: CHO cells stably expressing a human hERG potassium channel were digested with TrypLE and resuspended in the physiological solution for later use. The single-cell high-impedance sealing and whole-cell mode formation processes were automatically completed by Qpatch. The cells were clamped at a voltage of −80 mV, then a voltage of −50 mV was applied for 80 ms to subtract (current) leakage, and a voltage of +20 mV was applied for 4800 ms to open the hERG channel. The voltage was then reduced to −50 mV and maintained for 5000 ms. This process was used for data collection and analysis. Finally, the voltage was returned to the clamping voltage (−80 mV, 1000 ms). This process was repeated every 20,000 ms. […]

[3] = system: Caco-2 cells; experiment: Permeability and transporter substrate evaluation in Caco-2 monolayer; assay type: in vitro ADME
Description: • Cell: Caco-2 cells • Instruments: water purification instrument, ELGA Lab Wate; biosafety cabinet, NUAIRE; thermostatic CO2 incubator, Thermo; microplate reader, PerkinElmer; LC-MS/MS, AB SCIEX. • Method: A Caco-2 monolayer cell model was used to determine the two-way permeability of the test substance and evaluate whether the test substance was transported via efflux by a transporter. In the experiment, Caco-2 cells were seeded into a 96-well cell culture plate and cultured for 28 consecutive days before a transport assay. The test substance was administered on two sides. After 120 min of incubation, samples of apical end A, basal end B, and the cell lysate were collected, and the content of the test substance in the samples was quantitatively determined using a liquid chromatography-tandem mass spectrometry (LC/MS/MS) method. The apparent permeability coefficients (Papp) in the direction from the apical end to the basal end (A-B) and in the direction from the basal end to the apical end (B-A) and the efflux ratio were calculated based on the concentration of the test substance.

[4] = In vivo pharmacokinetics in SD rats; settings: intragastric administration group
Description: (§1) • Rats: SD rats, male, 200-250 g • Instruments: water purification instrument, Millipore; electronic balance, METTLER TOLEDO; high-speed benchtop centrifuge, Thermo; water bath thermostatic oscillator, Shanghai Yiheng Technical Co., Ltd.; vortex oscillator, Thermo; LC-MS/MS, AB SCIEX. • Method: Solutions of all compounds were prepared using DMSO and 20% solutol. In the pharmacokinetic experiment, the administration dose for the intravenous group (i.v) was 1 mg/kg, and the administration dose for the intragastric group (i.g) was 12 mg/kg; each group contained 3 rats. Blood was collected from the orbit of the rats before administration (0 h) and at set time points after administration. In the tissue distribution experimental group, the rats were intragastrically dosed at 12 mg/kg. […] in a heparinized EP tube and centrifuged at 13,500 rpm for 10 min to isolate the plasma. The pituitary was homogenized with water in a certain ratio. The plasma and pituitary homogenates were pre-treated and then analyzed by LC-MS/MS to determine the concentrations of the test substances in the plasma and the pituitary. The plasma drug concentration data were processed in a non-compartmental model using WinNonlin™ Version 6.3 (Pharsight, Mountain View, CA) pharmacokinetic software.

[5] = Pituitary tissue distribution in SD rats after intragastric administration; assay type: in vivo; settings: i.g 12 mg/kg; for Plasma concentration: in ng/mL (unit assumed)
Description: as §1

[6] = biological target: T1, human GnRHR; experiment: In vitro binding screening ([125I]-[D-Trp6]-LH-RH displacement, Chem-1 cell membrane); design: host or cells: Chem-1 cells (membrane preparation)
Description: 1 μM [D-Trp6]-LH-RH was used in the non-specific binding assay. The cell membrane was collected by filtration under vacuum and washed before liquid scintillation. The binding IC50 and IC90 of the compound were calculated using Prism.

- Inhibitory effect on human GnRHR (conclusion) [1]: significant inhibitory effect
- Efflux ratio (conclusion) [3]: relatively low efflux ratio
- Absolute bioavailability relative to Relugolix [4]: 3.47 times
- Pituitary concentration ([5]; 1 h): 2250 ± 474
- Plasma concentration ([5]; 1 h): 39.5 ± 14.0
- Pituitary concentration ([5]; 4 h): 1841 ± 636
- Plasma concentration ([5]; 4 h): 22.8 ± 2.5
- Pituitary concentration ([5]; 12 h): 1254 ± 494
- Plasma concentration ([5]; 12 h): 9.70 ± 3.10
- Binding ability to human GnRHR (conclusion) [6]: significant binding ability
Compound: CCNC(=O)Nc1ccc(-c2sc3c(c2CN(C)C)c(=O)n(-c2ccc(OC)nn2)c(=O)n3Cc2c(F)cccc2F)cn1 [Formula I]
- Inhibitory activity against the human hERG potassium channel (conclusion) [2]: relatively low inhibitory activity
